Patent publication US20260297080A1, “BICYCLIC COMPOUNDS AS CDK INHIBITORS” (BeOne Medicines I GmbH, priority 2022, published 2026)

Columns and labels:
CDK2/Cyclin E1 = CDK2/Cyclin E1 (Homo sapiens, UniProt P24941); assay: CDK2/Cyclin E1 Biochemical Assay (TR-FRET), 0.060 mM ATP; conditions: 0.15 μM Rb (Ser780)-biotin substrate, pH7.0, 60 min preincubation, 120 min reaction, room temperature
How it was run: (§1)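 Inhibitor concentrations up to 10 μM were preincubated with each cyclin–kinase complex for 60 minutes before ATP and biotinylated Rb (Ser780) substrate (0.15 μM) were added. After 120 minutes at room temperature, phosphorylation was quantified by HTRF and IC50 values were fitted with a four-parameter logistic equation.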

CDK1/Cyclin B1 = CDK1/Cyclin B1 (Homo sapiens, UniProt P06493); assay: CDK1/Cyclin B1 Biochemical Assay (TR-FRET), 0.015 mM ATP; conditions: 0.15 μM Rb (Ser780)-biotin substrate, pH7.0, 60 min preincubation, 120 min reaction, room temperature
How it was run: as §1

Chain of CDK1/Cyclin B1 (P06493 whole entry): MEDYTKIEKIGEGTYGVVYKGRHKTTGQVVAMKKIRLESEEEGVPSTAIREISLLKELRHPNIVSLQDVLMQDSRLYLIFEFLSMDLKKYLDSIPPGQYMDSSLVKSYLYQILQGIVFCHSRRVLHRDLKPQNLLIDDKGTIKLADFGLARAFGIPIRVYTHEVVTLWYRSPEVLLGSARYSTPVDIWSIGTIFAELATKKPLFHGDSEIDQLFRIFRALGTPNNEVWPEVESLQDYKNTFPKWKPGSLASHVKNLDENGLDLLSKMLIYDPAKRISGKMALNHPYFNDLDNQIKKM
Chain of CDK1/Cyclin B1 (P14635 whole entry partner): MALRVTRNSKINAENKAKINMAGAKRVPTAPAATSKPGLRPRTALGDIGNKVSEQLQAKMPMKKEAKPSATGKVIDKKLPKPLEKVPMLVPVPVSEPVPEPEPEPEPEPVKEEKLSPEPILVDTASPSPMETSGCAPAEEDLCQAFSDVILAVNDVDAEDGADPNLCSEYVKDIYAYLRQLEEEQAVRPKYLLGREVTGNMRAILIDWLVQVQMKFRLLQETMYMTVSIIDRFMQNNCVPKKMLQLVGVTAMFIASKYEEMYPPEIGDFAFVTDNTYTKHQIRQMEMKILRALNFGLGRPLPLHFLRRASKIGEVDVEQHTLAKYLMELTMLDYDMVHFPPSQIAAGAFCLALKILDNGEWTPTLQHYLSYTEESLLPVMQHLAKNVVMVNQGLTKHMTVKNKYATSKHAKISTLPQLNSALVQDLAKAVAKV

Row | IC50 (CDK2/Cyclin E1) | IC50 (CDK1/Cyclin B1) | Structure (SMILES)
1 | 2.5 nM | 91 nM | CC1(NC(=O)O[C@H]2CC[C@@H](c3cc(Nc4cc5c(cc4F)S(=O)(=O)NC5)n[nH]3)C2)CC1 (single isomer, unassigned) [Example 44b, cis-3-(3-((6-fluoro-1,1-dioxido-2,3-dihydrobenzo[d]isothiazol-5-yl)amino)-1H-pyrazol-5-yl)cyclopentyl(1-methylcyclopropyl)carbamate]
2 | 2.5 nM | 194 nM | CC(C)NC(=O)O[C@H]1CC[C@@H](c2cc(Nc3ccc4c(c3F)C(C)NS4(=O)=O)n[nH]2)C1 (single isomer, unassigned) [Example 51a, cis-3-(3-((4-fluoro-3-methyl-1,1-dioxido-2,3-dihydrobenzo[d]isothiazol-5-yl)amino)-1H-pyrazol-5-yl)cyclopentyl isopropylcarbamate]
3 | 3.3 nM | 82 nM | CC(C)NC(=O)O[C@H]1CC[C@@H](c2cc(Nc3ccc4c(c3F)C(C)NS4(=O)=O)n[nH]2)C1 (single isomer, unassigned) [Example 51b, cis-3-(3-((4-fluoro-3-methyl-1,1-dioxido-2,3-dihydrobenzo[d]isothiazol-5-yl)amino)-1H-pyrazol-5-yl)cyclopentyl isopropylcarbamate]
4 | 2.1 nM | 106 nM | CC(C)NC(=O)O[C@H]1CC[C@@H](c2cc(Nc3ccc4c(c3F)C(C)NS4(=O)=O)n[nH]2)C1 (single isomer, unassigned) [Example 51c, cis-3-(3-((4-fluoro-3-methyl-1,1-dioxido-2,3-dihydrobenzo[d]isothiazol-5-yl)amino)-1H-pyrazol-5-yl)cyclopentyl isopropylcarbamate]
5 | 8.7 nM | 447 nM | CC(C)NC(=O)O[C@H]1CC[C@@H](c2cc(Nc3ccc4c(c3F)C(C)NS4(=O)=O)n[nH]2)C1 (single isomer, unassigned) [Example 51d, cis-3-(3-((4-fluoro-3-methyl-1,1-dioxido-2,3-dihydrobenzo[d]isothiazol-5-yl)amino)-1H-pyrazol-5-yl)cyclopentyl isopropylcarbamate]
6 | 3.5 nM | 274 nM | CC1NS(=O)(=O)c2ccc(Nc3cc([C@@H]4CC[C@H](OC(=O)NC5(C)CC5)C4)[nH]n3)c(F)c21 (single isomer, unassigned) [Example 52a, cis-3-(3-((4-fluoro-3-methyl-1,1-dioxido-2,3-dihydrobenzo[d]isothiazol-5-yl)amino)-1H-pyrazol-5-yl)cyclopentyl(1-methylcyclopropyl)carbamate]
7 | 2.7 nM | 153 nM | CC1NS(=O)(=O)c2ccc(Nc3cc([C@@H]4CC[C@H](OC(=O)NC5(C)CC5)C4)[nH]n3)c(F)c21 (single isomer, unassigned) [Example 52b, cis-3-(3-((4-fluoro-3-methyl-1,1-dioxido-2,3-dihydrobenzo[d]isothiazol-5-yl)amino)-1H-pyrazol-5-yl)cyclopentyl(1-methylcyclopropyl)carbamate]
8 | 1.9 nM | 154 nM | CC1NS(=O)(=O)c2ccc(Nc3cc([C@@H]4CC[C@H](OC(=O)NC5(C)CC5)C4)[nH]n3)c(F)c21 (single isomer, unassigned) [Example 52c, cis-3-(3-((4-fluoro-3-methyl-1,1-dioxido-2,3-dihydrobenzo[d]isothiazol-5-yl)amino)-1H-pyrazol-5-yl)cyclopentyl(1-methylcyclopropyl)carbamate]
9 | 1 nM | 56 nM | CC1NS(=O)(=O)c2ccc(Nc3cc([C@@H]4CC[C@H](OC(=O)NC5(C)CC5)C4)[nH]n3)c(F)c21 (single isomer, unassigned) [Example 52d, cis-3-(3-((4-fluoro-3-methyl-1,1-dioxido-2,3-dihydrobenzo[d]isothiazol-5-yl)amino)-1H-pyrazol-5-yl)cyclopentyl(1-methylcyclopropyl)carbamate]
10 | 6.3 nM | 367 nM | CCCNC(=O)O[C@H]1CC[C@@H](c2cc(Nc3ccc4c(c3F)C(C)NS4(=O)=O)n[nH]2)C1 (single isomer, unassigned) [Example 53a, cis-3-(3-((4-fluoro-3-methyl-1,1-dioxido-2,3-dihydrobenzo[d]isothiazol-5-yl)amino)-1H-pyrazol-5-yl)cyclopentyl propylcarbamate]
11 | 3.8 nM | 92 nM | CCCNC(=O)O[C@H]1CC[C@@H](c2cc(Nc3ccc4c(c3F)C(C)NS4(=O)=O)n[nH]2)C1 (single isomer, unassigned) [Example 53b, cis-3-(3-((4-fluoro-3-methyl-1,1-dioxido-2,3-dihydrobenzo[d]isothiazol-5-yl)amino)-1H-pyrazol-5-yl)cyclopentyl propylcarbamate]
12 | 15 nM | 686 nM | CCCNC(=O)O[C@H]1CC[C@@H](c2cc(Nc3ccc4c(c3F)C(C)NS4(=O)=O)n[nH]2)C1 (single isomer, unassigned) [Example 53c, cis-3-(3-((4-fluoro-3-methyl-1,1-dioxido-2,3-dihydrobenzo[d]isothiazol-5-yl)amino)-1H-pyrazol-5-yl)cyclopentyl propylcarbamate]
13 | 7.1 nM | 170 nM | CCCNC(=O)O[C@H]1CC[C@@H](c2cc(Nc3ccc4c(c3F)C(C)NS4(=O)=O)n[nH]2)C1 (single isomer, unassigned) [Example 53d, cis-3-(3-((4-fluoro-3-methyl-1,1-dioxido-2,3-dihydrobenzo[d]isothiazol-5-yl)amino)-1H-pyrazol-5-yl)cyclopentyl propylcarbamate]
14 | 1.1 nM | 309 nM | CC[C@H](C)NC(=O)O[C@H]1CC[C@@H](c2cc(Nc3ccc4c(c3F)C(C)NS4(=O)=O)n[nH]2)C1 (single isomer, unassigned) [Example 54a]
15 | 2.7 nM | 564 nM | CC[C@H](C)NC(=O)O[C@H]1CC[C@@H](c2cc(Nc3ccc4c(c3F)C(C)NS4(=O)=O)n[nH]2)C1 (single isomer, unassigned) [Example 54b]
16 | 0.3 nM | 40 nM | CC[C@H](C)NC(=O)O[C@H]1CC[C@@H](c2cc(Nc3ccc4c(c3F)C(C)NS4(=O)=O)n[nH]2)C1 (single isomer, unassigned) [Example 54c]
17 | 3.2 nM | 428 nM | CC[C@H](C)NC(=O)O[C@H]1CC[C@@H](c2cc(Nc3ccc4c(c3F)C(C)NS4(=O)=O)n[nH]2)C1 (single isomer, unassigned) [Example 54d]
18 | 5.1 nM | 406 nM | CC(C)NC(=O)O[C@H]1CC[C@@H](c2cc(Nc3ccc4c(c3F)CN(C3CCC3O)S4(=O)=O)n[nH]2)C1 (single isomer, unassigned) [Example 102, cis-3-(3-((4-fluoro-2-(2-hydroxycyclobutyl)-1,1-dioxido-2,3-dihydrobenzo[d]isothiazol-5-yl)amino)-1H-pyrazol-5-yl)cyclopentyl isopropylcarbamate]
19 | 3.8 nM | 350 nM | CC(C)NC(=O)O[C@H]1CC[C@@H](c2cc(Nc3ccc4c(c3F)CN(C3CCC3O)S4(=O)=O)n[nH]2)C1 (single isomer, unassigned) [Example 103, cis-3-(3-((4-fluoro-2-(2-hydroxycyclobutyl)-1,1-dioxido-2,3-dihydrobenzo[d]isothiazol-5-yl)amino)-1H-pyrazol-5-yl)cyclopentyl isopropylcarbamate]
